In PMC9788431, “Combination of Docking-Based and Pharmacophore-Based Virtual Screening Identifies Novel Agonists That Target the Urotensin Receptor” (Molecules, 2022):
Entries after “also recorded” stand apart in the source; their conditions may differ.

Experiments:
UT receptor [1] = biological target: T1, UT receptor (Homo sapiens, UniProt Q9UKP6); assay: luciferase β-arrestin recruitment-based assay; format: cell-based
T1 construct: SNAP-tag; expressed in transfected cells; host or cells: 293A8 (HEK293A stably transfected with the UT receptor); inferred, the calcium-assay paragraph names no cells
T1 sequence (Q9UKP6 1-389): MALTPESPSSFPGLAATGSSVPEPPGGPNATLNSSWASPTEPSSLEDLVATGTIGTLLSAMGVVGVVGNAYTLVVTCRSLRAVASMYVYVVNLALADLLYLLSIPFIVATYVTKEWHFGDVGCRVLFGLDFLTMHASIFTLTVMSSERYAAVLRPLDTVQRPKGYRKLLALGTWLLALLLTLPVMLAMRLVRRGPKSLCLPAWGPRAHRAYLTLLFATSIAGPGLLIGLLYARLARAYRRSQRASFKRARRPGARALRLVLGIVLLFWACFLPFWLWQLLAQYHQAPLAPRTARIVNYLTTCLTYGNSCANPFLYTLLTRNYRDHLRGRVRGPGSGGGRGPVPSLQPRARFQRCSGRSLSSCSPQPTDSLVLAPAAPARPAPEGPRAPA
Protocol: (§1) HTLA cells (a HEK293 cell line stably expressing a tTA-dependent luciferase reporter and a β-arrestin2-TEV fusion gene) were a gift from the laboratory of R. Axel (he has given us permission to distribute them) and are maintained in DMEM supplemented with 10% FBS, 100 U/mL penicillin and 100 μg/mL streptomycin, 2 μg/mL puromycin and 100 μg/mL hygromycin B. HepG2 cells (C5 passage, human hepatoma cell line) were purchased from the National Platform of Experimental Cell Resources for Sci-Tech, Chinese Academy of Medical Sciences (Beijing, China), and 293A8 cells were the cell line HEK293A stably transfected with the UT receptor in our laboratory. HepG2 and 293A8 cells were grown in high glucose (25 mmol/L) Dulbecco’s modified Eagle’s medium (DMEM, Gibco, CA, USA) supplemented with 10% fetal bovine serum (FBS, Gibco, CA, USA), 100 U/mL penicillin and 100 µg/mL streptomycin solution (Solarbio, Beijing, China). Cells were cultured in a standard humidified incubator at 37 °C under a 5% CO2 atmosphere. The media were changed every 2 days. Subcultures were performed at a ratio of 1:3 when cells were approximately 75–85% confluent.
The β-arrestin recruitment-based experiments were performed according to previous reports with slight modifications. In brief, the UT receptor plasmid was transfected into HTLA cells with the transfection reagent PEI when the cell confluence reached approximately 80%. Transfected cells were seeded in 96-well plates at a density of 1.5 × 10^5 cells/well. After 24 h, the cells were treated with compounds diluted to the specified concentration using 10% FBS DMEM. Following the next 24 h incubation with compounds, the medium was removed and Bright-GloTM (Promega, Madison, WI, USA) reagent was added immediately. Then, the activity of firefly luciferase luminescence (RLUF) was measured using a SpectraMax M5 microplate reader (Molecular devices, LLC., San Jose, CA, USA).

UT receptor [2] = biological target: T1, UT receptor; assay: intracellular calcium mobilization (Fluo-8 calcium assay); format: cell-based; conditions: for agonist behaviour in calcium assay: in words
Protocol: as §1
Measurement of intracellular calcium mobilization was performed using Fluo-8 Calcium Assay Kit (Applygen, Beijing, China) following the manufacturer’s instructions.

HepG2 cells [3] = assay: glucose consumption; format: cell-based, human
Protocol: as §1
(§2) Glucose consumption detection was performed as described previously. In brief, HepG2 cells in 96-well plates at a density of 8000 cells/well were treated with compounds at 37 °C, and 5% CO2. After the indicated duration, the media from cultured cells were taken for glucose and lactic acid detection. The glucose levels were detected by a blood-glucose kit from Biosino Biotechnology (Beijing, China). The amount of glucose consumption was calculated by subtracting the initial glucose level from the remaining glucose in the wells. The lactate content was measured using the lactic acid assay kit (Nanjing Jiancheng Bioengineering Institute, Nanjing, China) according to the manufacturer’s instructions.

HepG2 cells [4] = assay: lactic acid release; format: cell-based, human
Protocol: as §1, §2

HepG2 cells [5] = assay: cell viability (CCK-8); format: cell-based, human; conditions: 24 h
Protocol: as §1
Cell viability was detected by Cell Counting Kit-8 (CCK-8) per the instructions of the technical manual (Dojindo, Kumamoto, Japan). In brief, the cells were seeded in a 96-well plate and incubated overnight in the cell culture incubator. After the cells were treated with compounds for a certain period, the CCK-8 test solution was added at 1/10 of the total volume. Then, the plates were incubated in the incubator for 2 h, and the absorbance at 450 nm was measured using a SpectraMax M5 microplate reader (Molecular Devices, LLC, San Jose, CA, USA).

UT receptor [6] = biological target: T1, UT receptor; parameters: method as in ChEMBL database and others; conditions: antagonist; Table S1 benchmarking ligands; ref ChEMBL database and others; cited from earlier work
[7] = HTLA cells transfected with UT receptor plasmid
[8] = HTLA cells transfected with UT receptor plasmid, 24 h incubation, read-out: β-arrestin recruitment-based assay EC50
[9] = intracellular calcium mobilization
[10] = intracellular calcium mobilization, fluorescence-based, read-out: Calcium assay EC50

Row | SMILES | IC50 (UT receptor [6]) [nM] | other results
1 | C=CC(C)(C)c1c(O)cc(O)c2c(=O)c(O)c(-c3cc(O)c4c(c3)C=CC(C)(C)O4)oc12 [Compound 1] | – | β-arrestin recruitment-based assay Emax (UT receptor [1]; [7]): 4.85; EC50 (UT receptor [1]; [8]): 89.7 nM; agonist behaviour in calcium assay (UT receptor [2]): full potent agonist; Calcium assay Emax (UT receptor [2]; [9]): 5.62; EC50 (UT receptor [2]; [10]): 7390 nM; glucose consumption (HepG2 cells [3]; 48 h total glucose consumption): significantly accelerate 48 h total glucose consumption; also recorded: promote glucose utilization; lactic acid release (HepG2 cells [4]): reduced lactic acid production; cell viability (HepG2 cells [5]): did not affect; also recorded: without obvious cytotoxic effects
2 | Cc1cc(NC(=O)NCCN2CCC(O)(Cc3ccccc3)CC2)c2ccccc2n1 [palosuran] | – | effect of palosuran preincubation on compound-induced intracellular calcium mobilization (UT receptor [2]; palosuran 10^−7 M, with Compounds 1, 2, 3): specifically reduced the increase in intracellular calcium mobilization
3 | CC(C)[C@H](NC(=O)[C@@H]1CSSC[C@H](NC(=O)[C@H](C)N)C(=O)N[C@@H](Cc2ccccc2)C(=O)N[C@@H](Cc2c[nH]c3ccccc23)C(=O)N[C@@H](CCCCN)C(=O)N[C@@H](Cc2ccc(O)cc2)C(=O)N1)C(=O)O [CHEMBL3104471] | 12 | –
4 | O=C(NCCc1cccs1)C1(c2ccccc2)CCCC1 [Compound 3] | – | β-arrestin recruitment-based assay Emax (UT receptor [1]; [7]): 3.26; EC50 (UT receptor [1]; [8]): 44.8 nM; agonist behaviour in calcium assay (UT receptor [2]): weak activity; Calcium assay Emax (UT receptor [2]; [9]): 2.37; EC50 (UT receptor [2]; [10]): 10600 nM; glucose consumption (HepG2 cells [3]; at higher concentrations (10^−6 M, 10^−5 M)): significantly increased glucose consumption; lactic acid release (HepG2 cells [4]): reduced lactic acid production; cell viability (HepG2 cells [5]): significantly reduced cell viability
5 | O=C(NCCN1CCC(O)(Cc2ccccc2)CC1)Nc1ccnc2sccc12 [CHEMBL3358673] | 930 | –
6 | Cc1cc(NC(=O)NCCN2CCC(O)(Cc3ccccc3)CC2)c2sccc2n1 [CHEMBL3358679] | 26 | –
7 | CCN1CCN(c2cccc3c2CN([C@H](CCCN(C)S(=O)(=O)c2cccs2)c2ccc(OC)c(OC)c2)C3=O)CC1 [CHEMBL571535] | 88 | –
8 | O=C(NC1CCN(Cc2ccc(OC3CCNCC3)c(Br)c2)CC1)c1cc2cc(Br)ccc2s1 [CHEMBL3915670] | 86 | –
9 | CC(C)[C@H](NC(=O)[C@@H]1CSSC[C@H](NC(=O)[C@H](C)N)C(=O)N[C@@H](Cc2ccccc2)C(=O)N[C@@H](Cc2cccc3ccccc23)C(=O)N[C@@H](CCCCN)C(=O)N[C@@H](Cc2ccc(O)cc2)C(=O)N1)C(=O)O [CHEMBL3104637] | 17 | –
10 | CC(C)[C@H](NC(=O)[C@@H]1CSSC[C@H](NC(=O)[C@H](C)N)C(=O)N[C@@H](Cc2ccccc2)C(=O)N[C@@H](C(c2ccccc2)c2ccccc2)C(=O)N[C@@H](CCCCN)C(=O)N[C@@H](Cc2ccc(O)cc2)C(=O)N1)C(=O)O [CHEMBL3104643] | 277 | –
11 | O=C(NC1CCN(Cc2ccc(OC3CCNCC3)c(Br)c2)CC1)c1cc2ccc(-c3ccc(Cl)cc3)cc2s1 [CHEMBL3907266] | 140 | –
12 | O=C(NC1CCN(Cc2ccc(OC3CCNCC3)c(Br)c2)CC1)c1cc2cc(Cl)ccc2s1 [CHEMBL3896625] | 51 | –
13 | COc1ccc([C@@H](CCCNS(=O)(=O)c2cccs2)N2C(=O)c3cccc(N4CCN(C)CC4)c3C2=O)cc1OC [CHEMBL567949] | 220 | –
14 | CC(C)[C@H](NC(=O)[C@@H]1CSSC[C@H](NC(=O)[C@H](C)N)C(=O)N[C@@H](Cc2ccccc2)C(=O)N2CCc3ccccc3[C@@H]2C(=O)N[C@@H](CCCCN)C(=O)N[C@@H](Cc2ccc(O)cc2)C(=O)N1)C(=O)O [CHEMBL3104465] | 21 | –
15 | CCN1CCN(c2cccc3c2CN([C@H](CCCNC(=O)c2cccs2)c2ccc(OC)c(OC)c2)C3=O)CC1 [CHEMBL567075] | 140 | –
16 | COc1ccc([C@@H](CCCNS(=O)(=O)c2cccs2)N2C(=O)c3cccc(N4CCN(C(C)C)CC4)c3C2=O)cc1OC [CHEMBL567736] | 150 | –
17 | N#Cc1ccc2sc(C(=O)NC3CCN(Cc4ccc(OC5CCNCC5)c(Br)c4)CC3)cc2c1 [CHEMBL3977330] | 25 | –
18 | CN(C)CCCOc1ccc(CN2CC[C@H](NC(=O)c3ccc(Cl)c(Cl)c3)C2)cc1 [CHEMBL366221] | 170 | –

Row | SMILES | IC50 (UT receptor [6]) [nM] | other results
19 | O=C(NC1CCN(Cc2ccc(OC3CCNCC3)c(Br)c2)CC1)c1ccco1 [CHEMBL3942137] | 770 | –
20 | CN(CC(=O)N1CCCCC1CN1CCCC1)c1ccc(Cl)c(Cl)c1 (centres unmarked) [CHEMBL254154] | 631 | –
21 | CCN1CCN(c2cccc3c2CN([C@H](CCCNCc2cccs2)c2ccc(OC)c(OC)c2)C3=O)CC1 [CHEMBL568123] | 59 | –
22 | Cc1ccc(CC2(O)CCN(CCNC(=O)Nc3ccnc4ccsc34)CC2)cc1 [CHEMBL3358684] | 190 | –
23 | O=C(c1ccc([N+](=O)[O-])o1)N1CCN(c2ccc([N+](=O)[O-])cc2)CC1 [Compound 2] | – | EC50 (UT receptor [1]): 37 nM; β-arrestin recruitment-based assay Emax (UT receptor [1]; [7]): 2.40; EC50 (UT receptor [2]): 10200 nM; Calcium assay Emax (UT receptor [2]; [9]): 4.08; glucose consumption (HepG2 cells [3]; 48 h total glucose consumption): no significant differences; lactic acid release (HepG2 cells [4]): no significant differences; cell viability (HepG2 cells [5]): no significant differences
24 | COc1ccc([C@@H](CCCNS(=O)(=O)c2cccs2)N2C(=O)c3cccc(N4CCNCC4)c3C2=O)cc1OC [CHEMBL566366] | 500 | –
25 | COc1cc2c(cc1OC)C(CCc1cc(F)ccc1F)N(CCNC(=O)Nc1cc(C)nc3ccccc13)CC2 (centres unmarked) [CHEMBL1163360] | 67 | –
26 | COc1ccc([C@@H](CCCN(C)S(=O)(=O)c2cccs2)N2Cc3c(cccc3N3CCN(C(C)C)CC3)C2=O)cc1OC [CHEMBL578203] | 500 | –
27 | O=C(NC1CCN(Cc2ccc(OC3CCNCC3)c(Br)c2)CC1)c1cc2cc(F)ccc2s1 [CHEMBL3924660] | 53 | –
28 | O=C(NCCN1CCC(O)(Cc2ccccc2Br)CC1)Nc1ccnc2ccsc12 [CHEMBL3358685] | 20 | –
29 | COc1ccc([C@@H](CCCN(C)S(=O)(=O)c2cccs2)N2Cc3c(cccc3N3CCNCC3)C2=O)cc1OC [CHEMBL565416] | 410 | –
30 | COc1ccc2sc(C(=O)NC3CCN(Cc4ccc(OC5CCNCC5)c(Br)c4)CC3)cc2c1 [CHEMBL3957806] | 100 | –
31 | O=C(N[C@H]1CCN(Cc2ccc(OC3CCNCC3)c(Br)c2)C1)c1ccc(Cl)c(Cl)c1 [CHEMBL495075] | 4 | –
32 | COc1cc(Br)c(CNc2ccc(C(F)(F)F)c(O[C@H]3CCN(C)C3)c2)cc1OC [CHEMBL2348511] | 191 | –
33 | COc1ccccc1-c1ccc2cc(C(=O)NC3CCN(Cc4ccc(OC5CCNCC5)c(Br)c4)CC3)sc2c1 [CHEMBL3915656] | 560 | –
34 | COc1cc(Br)c(S(=O)(=O)Nc2ccc(C(F)(F)F)c(OCCN(C)C)c2)cc1OC [CHEMBL2348523] | 100 | –
35 | CCN1CCN(c2cccc3c2CN([C@H](CCCNS(=O)(=O)c2c[nH]cn2)c2ccc(OC)c(OC)c2)C3=O)CC1 [CHEMBL578207] | 51 | –
36 | COc1cc(Br)c(S(=O)(=O)Nc2ccc(Cl)c(O[C@@H]3CCN(C)C3)c2)cc1OC [CHEMBL2348501] | 43 | –
